Reference: ChEMBL document CHEMBL5223073, “Andrographolide suppresses cisplatin-induced endothelial hyperpermeability through activation of PI3K/Akt and eNOS -derived nitric oxide” (Bioorg Med Chem, 2020)
Active and inactive are the calls of the source. The rule behind the calls is not given here.

Tests used:
HUVEC [1] = assay: Downregulation of cisplatin-induced ICAM1 protein expression in HUVEC cells at 30 uM preincubated with eNOS inhibitor, N(G)-nitro-L-arginine methyl ester followed by compound addition and further incubated for 1 hr by Western blot analysis; format: functional, cell-based; settings: Homo sapiens
[2] = molecular target: T1, Nitric oxide synthase 3 (Homo sapiens) (UniProt P29474); assay: Activation of eNOS activity in cisplatin-treated HUVEC cells assessed as increase in eNOS phosphorylation at Ser1177 residue at 30 uM preincubated with PI3K inhibitor, wortmannin followed by compound addition measured after 5 to 240 mins by Western blot analysis; format: cell-based; settings: time 5-240 min
T1 sequence (whole entry): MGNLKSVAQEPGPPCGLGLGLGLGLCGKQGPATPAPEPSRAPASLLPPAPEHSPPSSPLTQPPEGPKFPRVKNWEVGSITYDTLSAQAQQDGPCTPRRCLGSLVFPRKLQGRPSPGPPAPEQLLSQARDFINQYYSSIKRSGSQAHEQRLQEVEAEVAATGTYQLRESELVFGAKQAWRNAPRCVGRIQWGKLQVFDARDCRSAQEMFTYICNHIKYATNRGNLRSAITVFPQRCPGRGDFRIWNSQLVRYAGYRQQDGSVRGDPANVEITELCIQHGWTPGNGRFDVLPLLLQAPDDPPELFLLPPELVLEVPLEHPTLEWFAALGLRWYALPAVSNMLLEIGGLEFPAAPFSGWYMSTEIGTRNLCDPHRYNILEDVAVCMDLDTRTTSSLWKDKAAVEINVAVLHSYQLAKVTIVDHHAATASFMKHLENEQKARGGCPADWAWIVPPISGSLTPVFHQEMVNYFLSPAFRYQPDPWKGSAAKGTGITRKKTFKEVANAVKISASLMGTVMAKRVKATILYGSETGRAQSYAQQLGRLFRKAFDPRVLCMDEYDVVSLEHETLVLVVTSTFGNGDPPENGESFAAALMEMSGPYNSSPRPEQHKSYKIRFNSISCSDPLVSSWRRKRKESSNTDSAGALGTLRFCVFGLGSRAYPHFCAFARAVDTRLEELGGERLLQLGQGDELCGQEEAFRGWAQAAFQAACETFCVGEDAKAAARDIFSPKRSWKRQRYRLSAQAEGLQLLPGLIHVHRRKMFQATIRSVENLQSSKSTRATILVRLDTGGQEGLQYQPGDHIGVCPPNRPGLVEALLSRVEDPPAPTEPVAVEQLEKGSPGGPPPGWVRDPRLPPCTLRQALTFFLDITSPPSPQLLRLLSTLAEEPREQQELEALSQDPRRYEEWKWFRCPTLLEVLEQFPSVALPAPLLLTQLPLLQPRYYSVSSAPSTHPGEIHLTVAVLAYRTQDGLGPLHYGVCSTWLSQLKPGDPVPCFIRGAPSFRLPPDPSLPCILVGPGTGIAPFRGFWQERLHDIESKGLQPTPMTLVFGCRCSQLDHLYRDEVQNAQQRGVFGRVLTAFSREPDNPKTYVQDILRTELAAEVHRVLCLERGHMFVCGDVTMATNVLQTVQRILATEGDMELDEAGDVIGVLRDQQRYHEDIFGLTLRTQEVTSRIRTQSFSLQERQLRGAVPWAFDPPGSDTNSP

HUVEC [3] = assay: Activation of PI3K in cisplatin-treated HUVEC cells assessed as increase PIP3 formation at 30 uM pretreated for 30 mins in presence of PI3K inhibitor, wortmannin followed by cisplatin addition by immunoprecipitation analysis; format: cell-based; settings: Homo sapiens
[4] = molecular target: T1, Nitric oxide synthase 3 (Homo sapiens); assay: Activation of eNOS activity in cisplatin-treated HUVEC cells assessed as increase in intracellular cGMP level incubated for 15 mins by radioimmunoassay; format: cell-based; settings: filed as activator, dose 10-30 µM
HUVEC [5] = assay: Downregulation of cisplatin-induced ICAM1 protein expression in HUVEC cells at 100 uM incubated for 1 hr by Western blot analysis; format: functional, cell-based; settings: Homo sapiens
HUVEC [6] = assay: Improvement in cisplatin-induced endothelial monolayer integrity in HUVEC cells assessed as increase in transendothelial electric resistance at 30 uM preincubated with compound in presence of eNOS inhibitor, N(G)-nitro-L-arginine methyl ester followed by cisplatin stimulation and measured after 45 mins; format: functional, cell-based; settings: Homo sapiens
U-937 [7] = assay: Inhibition of cisplatin-induced ICAM1 dependent HUVEC cells adhesion to human U-937 cells at 10 to 30 uM preincubated with HUVEC cells for 4.5 hrs in presence of cisplatin and eNOS inhibitor, N(G)-nitro-L-arginine methyl ester followed by U-937 cell suspension addition and measured after 1 hr by BCECF fluorescent probe based assay; format: functional; settings: dose 10-30 µM, time 5.5 hrs
HUVEC [8] = assay: Induction of NO production in cisplatin-treated HUVEC cells assessed as increase in fluorescence signal at 30 uM preincubated with PI3K inhibitor, wortmannin for 3 hrs followed by compound addition and measured immediately by DAF-FM dye based analysis; format: functional, cell-based; settings: Homo sapiens
HUVEC [9] = assay: Inhibition of cisplatin-induced ICAM-1 mRNA expression in HUVEC cells preincubated for 30 mins followed by cisplatin addition and measured after 24 hrs by RT-PCR analysis; format: functional, cell-based; settings: Homo sapiens, dose 10-30 µM, time 24.5 hrs
HUVEC [10] = assay: Inhibition of cisplatin-induced store operated Ca2+ release in HUVEC cells at 30 uM preincubated with compound in presence of eNOS inhibitor, N(G)-nitro-L-arginine methyl ester followed by cisplatin stimulation by Fura-2 AM staining based calcium influx assay; format: functional, cell-based; settings: Homo sapiens
HUVEC [11] = assay: Improvement in cisplatin-induced endothelial monolayer integrity in HUVEC cells assessed as increase in transendothelial electric resistance at 30 uM preincubated with compound followed by cisplatin stimulation and measured after 45 mins; format: functional, cell-based; settings: Homo sapiens
HUVEC [12] = assay: Upregulation of cytosolic p65 level in cisplatin-treated HUVEC cells at 30 uM preincubated with eNOS inhibitor, N(G)-nitro-L-arginine methyl ester followed by compound addition and further incubated for 1 hr by Western blot analysis; format: functional, cell-based; settings: Homo sapiens
[13] = molecular target: Transcription factor p65 (Homo sapiens) (UniProt Q04206); assay: Inhibition of cisplatin-induced phosphorylation of p65 subunit at Ser536 residue in HUVEC cells at 30 uM preincubated with PI3K inhibitor, wortmannin followed by compound addition and further incubated for 1 hr by Western blot analysis; format: cell-based
Transcription factor p65 (Homo sapiens), sequence (Q04206 whole entry): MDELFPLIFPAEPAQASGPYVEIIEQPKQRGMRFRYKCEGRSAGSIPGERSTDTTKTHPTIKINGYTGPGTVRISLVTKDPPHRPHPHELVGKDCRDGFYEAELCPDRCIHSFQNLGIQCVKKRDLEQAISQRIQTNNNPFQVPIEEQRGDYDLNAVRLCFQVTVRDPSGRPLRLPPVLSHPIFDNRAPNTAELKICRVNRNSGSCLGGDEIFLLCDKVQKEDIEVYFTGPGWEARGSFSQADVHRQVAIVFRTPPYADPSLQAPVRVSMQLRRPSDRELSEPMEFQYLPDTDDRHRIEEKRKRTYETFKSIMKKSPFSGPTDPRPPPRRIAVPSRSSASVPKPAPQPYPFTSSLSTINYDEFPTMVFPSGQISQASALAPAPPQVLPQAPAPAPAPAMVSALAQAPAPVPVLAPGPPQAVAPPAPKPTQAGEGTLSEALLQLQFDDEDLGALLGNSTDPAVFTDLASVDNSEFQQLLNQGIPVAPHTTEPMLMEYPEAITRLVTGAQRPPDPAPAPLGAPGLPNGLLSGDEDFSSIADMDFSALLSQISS

HUVEC [14] = assay: Upregulation of cytosolic p65 level in cisplatin-treated HUVEC cells at 30 uM incubated for 1 hr by Western blot analysis; format: functional, cell-based; settings: Homo sapiens
HUVEC [15] = assay: Inhibition of cisplatin-induced TRPC1 phosphorylation in [32P] orthophosphate labeled HUVEC cells at 30 uM incubated for 15 mins in presence of cisplatin by Western blot analysis; format: cell-based; settings: Homo sapiens
HUVEC [16] = assay: Induction of NO production in cisplatin-treated HUVEC cells assessed as increase in fluorescence signal at 30 uM measured after 4 to 15 mins by DAF-FM dye based analysis; format: functional, cell-based; settings: Homo sapiens, time 4-15 min
U-937 [17] = assay: Cytotoxicity against human U-937 cells assessed as reduction in cell viability at <=30 uM measured after 24 hrs by MTT assay; format: toxicity, cell-based; settings: u-937, 24 h
U-937 [18] = assay: Inhibition of cisplatin-induced ICAM1 dependent HUVEC cells adhesion to human U-937 cells at 10 to 30 uM preincubated with HUVEC cells for 4.5 hrs in presence of cisplatin followed by U-937 cell suspension addition and measured after 1 hr by BCECF fluorescent probe based assay; format: functional; settings: dose 10-30 µM, time 5.5 hrs

What does the source list for `C=C1CC[C@@H]2[C@](C)(CO)[C@H](O)CC[C@@]2(C)[C@@H]1C/C=C1/C(=O)OC[C@H]1O` [ANDROGRAPHOLIDE]?
Activity (HUVEC [1]): inactive; Activity [2]: inactive; Activity (HUVEC [3]): inactive; Activity [4]: Dose-Dependent Effect; Activity (HUVEC [5]): Active; Activity (HUVEC [6]): inactive; inhibition (U-937 [7]): inactive; Activity (HUVEC [8]): inactive; inhibition (HUVEC [9]): Dose-Dependent Effect; inhibition (HUVEC [10]): inactive; Activity (HUVEC [11]): Active; Activity (HUVEC [12]): inactive; inhibition [13]: inactive; Activity (HUVEC [14]): Active; inhibition (HUVEC [15]): Active; Activity (HUVEC [16]): Active; Activity (U-937 [17]): Non-Toxic; inhibition (U-937 [18]): Active
